Data published in US20240360154A1, “AROYL SUBSTITUTED TRICYCLIC COMPOUND, PREPARATION METHOD THEREFOR AND USE THEREOF” (GENFLEET THERAPEUTICS (SHANGHAI) INC., priority 2020, published 2024).
pIC50: −log10 of the molar value. Counter-ions that a name gives are not always drawn.

Key:
[1] = target: BTK (Homo sapiens (Human), UniProt Q06187); test: BTK enzyme experiment (ADP-Glo kinase assay); format: biochemical; conditions: 10 nM BTK, ATP 125 μM, Poly(Glu4, Tyr1), 90 minutes at 20° C.; read-out: BTK(WT) IC50
Chain of BTK (Q06187 whole entry): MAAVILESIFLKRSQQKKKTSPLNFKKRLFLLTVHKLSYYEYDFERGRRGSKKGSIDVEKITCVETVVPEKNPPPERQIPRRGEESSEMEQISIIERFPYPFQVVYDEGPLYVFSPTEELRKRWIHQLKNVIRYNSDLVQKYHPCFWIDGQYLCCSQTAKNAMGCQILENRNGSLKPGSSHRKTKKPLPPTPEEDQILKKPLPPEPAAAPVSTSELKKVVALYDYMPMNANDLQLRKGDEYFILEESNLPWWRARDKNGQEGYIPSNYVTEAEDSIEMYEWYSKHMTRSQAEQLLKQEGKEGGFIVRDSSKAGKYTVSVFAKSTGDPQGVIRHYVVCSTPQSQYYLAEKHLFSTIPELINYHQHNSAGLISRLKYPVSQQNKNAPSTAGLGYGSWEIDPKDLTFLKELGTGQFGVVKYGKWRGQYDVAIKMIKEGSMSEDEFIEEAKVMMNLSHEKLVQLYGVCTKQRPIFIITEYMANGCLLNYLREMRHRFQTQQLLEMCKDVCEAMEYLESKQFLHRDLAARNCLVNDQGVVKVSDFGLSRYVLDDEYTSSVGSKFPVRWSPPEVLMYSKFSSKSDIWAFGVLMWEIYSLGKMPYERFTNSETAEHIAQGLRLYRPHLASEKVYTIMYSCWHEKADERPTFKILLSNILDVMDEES
Protocol: (§1) A 3-fold gradient concentration stock solution of 1000× compound was prepared using DMSO and diluted 100-fold to 10× compound stock solution using reaction buffer (50 mM HEPES, pH 7.5, 0.0015% Briji-35, 2 mM DTT, 10 mM MgCl2), and the 10× compound stock solution was transferred to a 384-well plate. Enzyme reactions were set up with BTK Kinase Enzyme System (Promega Catalog #V2941) or BTK (C481S) Kinase Enzyme System (Promega Catalog #VA7033). First, a 2× enzyme solution containing 10 nM BTK or 10 nM BTK C481S was prepared with reaction buffer and added to the plate, and incubated with the compound for 10 minutes. […] Finally, the kinase activity was detected according to the experimental steps provided by ADP-Glo™ kinase Assay Kit (Promega, #V9101), and finally the luminescence chemiluminescence value was read. DMSO was used as the maximum signal value, and adding no enzyme was used as the minimum signal value. The inhibition rate of the compound (%)=(maximum signal value−compound signal value)/(maximum signal value−minimum signal value)×100% was calculated. The compound gradient dilution concentration and the corresponding inhibition rate of the enzyme activity were fit by using XLFit four-parameter method, and IC50 value was calculated.

[2] = target: BTK (C481S) (Homo sapiens (Human), UniProt Q06187, C481S); test: BTK C481S enzyme experiment (ADP-Glo kinase assay); format: biochemical; conditions: 10 nM BTK C481S, ATP 125 μM, Poly(Glu4, Tyr1), 90 minutes at 20° C.
Chain of BTK (C481S) (Q06187 whole entry C481S): as the sequence (Q06187 whole entry) above, with C481S counted along it
Protocol: as §1

[3] = system: TMD-8 cells; test: TMD-8 proliferation inhibition experiment; format: cell-based; conditions: human diffuse large B lymphoma cells, three days incubation
Protocol: TMD-8 cells are human diffuse large B lymphoma (Mingzhou Bio, MZ-0832), cultured in 10% FBS+1% PS 1640 medium; OCI-LY10 is human diffuse large B lymphoma (BeNa Culture Collection, BNCC337742), cultured in 10% FBS+1% PS IMDM. Day 1: Cells at logarithmic growth phase were taken, counted and inoculated 600 TMD-8 or 2000 OCI-LY10 cells in a 384-well cell culture plate and cultured overnight. Day 2: A 3-fold gradient concentration stock solution of 400× compound was prepared with DMSO, and diluted 40-fold to a 10× compound stock solution with culture medium. The 10× compound stock solution was added to each cell culture well with a final concentration of 1× compound stock solution and a DMSO content of 0.25%. DMSO was used as experimental control, and culture medium was used as blank control. The incubation was continued for three days after compound addition. On the fifth day, 25 μL of […] was added to each well, mixed well and incubated for 10 minutes, then the chemiluminescence value (RLU value) was read. The cell proliferation inhibition rate (%)=(RLUcontrol−RLUcompound)/(RLUcontrol−RLUblank)×100% was calculated. The compound gradient dilution concentration and the corresponding cell proliferation inhibition rate were fit by using XLFit four-parameter method, and IC50 value was calculated.

SMILES	pIC50 [1]	pIC50 [2]	pIC50 ([3]; Homo sapiens, TMD8, 72 h)	pIC50 [3]
COC1CCC2(C1)Nc1c(cnc3[nH]cc(C(=O)c4ccc(Oc5ccccc5)cc4Cl)c13)NC2=O (single isomer, unassigned) [Z25-1, 9′-(2-chloro-4-phenoxybenzoyl)-3-methoxy-4′,7′-dihydrospiro[cyclopentane-1,2′-pyrrolo[3′,2′:5,6]pyrido[3,4-b]pyrazin]-3′(1′H)-one]	7.49	7.70	7.00	–
COC1CCC2(C1)Nc1c(cnc3[nH]cc(C(=O)c4ccc(Oc5ccccc5)cc4Cl)c13)NC2=O (single isomer, unassigned) [Z25-3, 9′-(2-chloro-4-phenoxybenzoyl)-3-methoxy-4′,7′-dihydrospiro[cyclopentane-1,2′-pyrrolo[3′,2′:5,6]pyrido[3,4-b]pyrazin]-3′(1′H)-one]	7.65	7.79	–	6.97
COC1CCC2(C1)Nc1c(cnc3[nH]cc(C(=O)c4ccc(Oc5ccccc5)cc4Cl)c13)NC2=O (single isomer, unassigned) [Z25-3a, 9′-(2-chloro-4-phenoxybenzoyl)-3-methoxy-4′,7′-dihydrospiro[cyclopentane-1,2′-pyrrolo[3′,2′:5,6]pyrido[3,4-b]pyrazin]-3′(1′H)-one]	7.81	8.12	–	6.99
COC1CCC2(C1)Nc1c(cnc3[nH]cc(C(=O)c4ccc(Oc5ccccc5)cc4Cl)c13)NC2=O (single isomer, unassigned) [Z25-3b, 9′-(2-chloro-4-phenoxybenzoyl)-3-methoxy-4′,7′-dihydrospiro[cyclopentane-1,2′-pyrrolo[3′,2′:5,6]pyrido[3,4-b]pyrazin]-3′(1′H)-one]	7.82	8.00	–	6.85
N#C[C@H]1CC[C@@]2(C1)Nc1c(cnc3[nH]cc(C(=O)c4ccc(Oc5ccccc5)cc4Cl)c13)NC2=O (single isomer, unassigned) [Z26-2]	7.63	7.76	–	6.80
N#C[C@H]1CC[C@@]2(C1)Nc1c(cnc3[nH]cc(C(=O)c4ccc(Oc5ccccc5)cc4Cl)c13)NC2=O (single isomer, unassigned) [Z26-3]	7.47	7.69	–	6.67
O=C(c1ccc(Oc2ccccc2)cc1Cl)c1c[nH]c2ncc3c(c12)N[C@@]1(CC[C@H](CO)OC1)C(=O)N3 (single isomer, unassigned) [Z41-2b]	8.10	8.21	–	7.00
CN1C(=O)[C@](C)(CO)Nc2c1cnc1[nH]cc(C(=O)c3ccc(Oc4ccccc4)cc3Cl)c21 (single isomer, unassigned) [Z51-1]	7.28	7.46	–	6.55
CN1C(=O)[C@@](C)(CO)Nc2c1cnc1[nH]cc(C(=O)c3ccc(Oc4ccccc4)cc3Cl)c21 (single isomer, unassigned) [Z51-2]	7.49	7.68	–	6.81
COCC1(C)Nc2c(cnc3[nH]cc(C(=O)c4ccc(Oc5ccccc5)cc4Cl)c23)N(C)C1=O (single isomer, unassigned) [Z52-1, 9-(2-chloro-4-phenoxybenzoyl)-2-(methoxymethyl)-2,4-dimethyl-1,2,4,7-tetrahydro-3H-pyrrolo[3′,2′:5,6]pyrido[3,4-b]pyrazin-3-one]	7.62	7.62	6.70	–
[2H]C([2H])([2H])OC[C@@]1(C)Nc2c(cnc3[nH]cc(C(=O)c4ccc(Oc5ccccc5)cc4Cl)c23)NC1=O (single isomer, unassigned) [Z66-2]	7.90	8.07	6.52	–
COCCOCC1(C)Nc2c(cnc3[nH]cc(C(=O)c4ccc(Oc5ccccc5)cc4Cl)c23)NC1=O (single isomer, unassigned) [Z153-1, 9-(2-chloro-4-phenoxybenzoyl)-2-((2-methoxyethoxy)methyl)-2-methyl-1,2,4,7-tetrahydro-3H-pyrrolo[3′,2′:5,6]pyrido[3,4-b]pyrazin-3-one]	7.34	7.59	6.47	–
O=C(c1ccc(Oc2ccccc2)cc1Cl)c1c[nH]c2ncc3c(c12)NC1(CCOC1)C(=O)N3 (stereo not drawn) [Z1, 9′-(2-chloro-4-phenoxybenzoyl)-4,4′,5,7′-tetrahydro-2H-spiro[furan-3,2′-pyrrolo[3′,2′:5,6]pyrido[3,4-b]pyrazin]-3′(1′H)-one]	7.39	7.72	6.81	–
CN1CCC2(C1)Nc1c(cnc3[nH]cc(C(=O)c4ccc(Oc5ccccc5F)cc4Cl)c13)NC2=O (stereo not drawn) [Z6]	7.71	7.85	–	6.82
CN1CCC2(C1)Nc1c(cnc3[nH]cc(C(=O)c4ccc(Oc5cccc(F)c5)cc4Cl)c13)NC2=O (stereo not drawn) [Z7]	7.55	7.75	–	6.59
CN1CCC2(C1)Nc1c(cnc3[nH]cc(C(=O)c4ccc(Oc5ccccc5)cc4Cl)c13)N(C)C2=O (stereo not drawn) [Z8]	7.13	7.55	–	6.33
O=C(c1ccc(Oc2ccccc2)cc1Cl)c1c[nH]c2ncc3c(c12)NC1(CCN(C(=O)C2CC2)C1)C(=O)N3 (stereo not drawn) [Z10]	7.15	7.60	–	6.51
CN1CC2(C1)Nc1c(cnc3[nH]cc(C(=O)c4ccc(Oc5ccccc5)cc4Cl)c13)NC2=O [Z11, 9′-(2-chloro-4-phenoxybenzoyl)-1-methyl-4′,7′-dihydrospiro[azetidine-3,2′-pyrrolo[3′,2′:5,6]pyrido[3,4-b]pyrazin]-3′(1′H)-one]	7.26	7.67	6.43	–
CN1CCC2(C1)Nc1c(cnc3[nH]cc(C(=O)c4ccc(Oc5cc(C(F)(F)F)ccn5)cc4Cl)c13)NC2=O (stereo not drawn) [Z12]	7.58	7.34	–	6.32
COC[C@@]1(C)Nc2c(cnc3[nH]cc(C(=O)c4ccc(Oc5ccccc5)cc4Cl)c23)NC1=O [Z13-2]	7.40	7.63	–	6.74
CC1(C)Nc2c(cnc3[nH]cc(C(=O)c4ccc(Oc5ccccc5)cc4Cl)c23)N(CCO)C1=O [Z15]	7.24	7.14	–	6.20
COC1CCC2(C1)Nc1c(cnc3[nH]cc(C(=O)c4ccc(Oc5ccccc5)cc4Cl)c13)NC2=O (stereo not drawn) [Z25, 9′-(2-chloro-4-phenoxybenzoyl)-3-methoxy-4′,7′-dihydrospiro[cyclopentane-1,2′-pyrrolo[3′,2′:5,6]pyrido[3,4-b]pyrazin]-3′(1′H)-one]	8.22	8.31	6.89	–
CN1C(=O)C(C)(CO)Nc2c1cnc1[nH]cc(C(=O)c3ccc(Oc4ccccc4)cc3Cl)c21 (stereo not drawn) [Z51, 9-(2-chloro-4-phenoxybenzoyl)-2-(hydroxymethyl)-2,4-dimethyl-1,2,4,7-tetrahydro-3H-pyrrolo[3′,2′:5,6]pyrido[3,4-b]pyrazin-3-one]	7.44	7.40	6.59	–
COCC1(C)Nc2c(cnc3[nH]cc(C(=O)c4ccc(Oc5cc(C)ccn5)cc4Cl)c23)N(C)C1=O (stereo not drawn) [Z65, 9-(2-chloro-4-((4-methylpyridin-2-yl)oxy)benzoyl)-2-(methoxymethyl)-2,4-dimethyl-1,2,4,7-tetrahydro-3H-pyrrolo[3′,2′:5,6]pyrido[3,4-b]pyrazin-3-one formate]	7.51	7.51	6.29	–
[2H]C([2H])([2H])OCC1(C)Nc2c(cnc3[nH]cc(C(=O)c4ccc(Oc5ccccc5)cc4Cl)c23)NC1=O (stereo not drawn) [Z66, 9-(2-chloro-4-phenoxybenzoyl)-2-((methoxy-d3)methyl)-2-methyl-1,2,4,7-tetrahydro-3H-pyrrolo[3′,2′:5,6]pyrido[3,4-b]pyrazin-3-one]	7.79	8.03	6.83	–
CCOCC1(C)Nc2c(cnc3[nH]cc(C(=O)c4ccc(Oc5ccccc5)cc4Cl)c23)NC1=O (stereo not drawn) [Z67, 9-(2-chloro-4-phenoxybenzoyl)-2-(ethoxymethyl)-2-methyl-1,2,4,7-tetrahydro-3H-pyrrolo[3′,2′:5,6]pyrido[3,4-b]pyrazin-3-one]	7.40	7.74	6.58	–
COCC1(C)Nc2c(cnc3[nH]cc(C(=O)c4ccc(Oc5ccccc5)cc4F)c23)NC1=O (stereo not drawn) [Z71]	7.69	7.67	–	6.77
